The conditions of data set [1]: sunflower oil dispersant; for Particle size (D50): size below which 50% of the particles by volume are found; for Particle size (D90): size below which 90% of the particles by volume are found. The method, then: Particle Size Distribution (PSD)” is determined by laser diffraction in a Malvern Master Sizer 2000 equipment or its equivalent: Measurement conditions:
As used herein, “Particle Size Distribution (P.S.D)” means the cumulative volume size distribution of equivalent spherical diameters as determined by laser diffraction in Malvern Master Sizer 2000 equipment or its equivalent.
As used herein, Dx means that X percent of the particles have a diameter less than a specified diameter D. Thus, a D90 or d(0.9) of less than 300 microns means that 90 volume-percent of the particles in a composition have a diameter less than 300 microns.
The important characteristics of the PSD were the (D90), which is the size, in microns, below which 90% of the particles by volume are found, and the (D50), which is the size, in microns, below which 50% of the particles by volume are found.

The conditions of data set [2]: cited from earlier work.
Data set [3] deals with B-form of the enzyme monoamine oxidase (MAO-B) (Homo sapiens, UniProt P27338). The conditions noted are these: qualitative statement in the background; cited from earlier work.
Chain of B-form of the enzyme monoamine oxidase (MAO-B) (P27338 whole entry, species assumed): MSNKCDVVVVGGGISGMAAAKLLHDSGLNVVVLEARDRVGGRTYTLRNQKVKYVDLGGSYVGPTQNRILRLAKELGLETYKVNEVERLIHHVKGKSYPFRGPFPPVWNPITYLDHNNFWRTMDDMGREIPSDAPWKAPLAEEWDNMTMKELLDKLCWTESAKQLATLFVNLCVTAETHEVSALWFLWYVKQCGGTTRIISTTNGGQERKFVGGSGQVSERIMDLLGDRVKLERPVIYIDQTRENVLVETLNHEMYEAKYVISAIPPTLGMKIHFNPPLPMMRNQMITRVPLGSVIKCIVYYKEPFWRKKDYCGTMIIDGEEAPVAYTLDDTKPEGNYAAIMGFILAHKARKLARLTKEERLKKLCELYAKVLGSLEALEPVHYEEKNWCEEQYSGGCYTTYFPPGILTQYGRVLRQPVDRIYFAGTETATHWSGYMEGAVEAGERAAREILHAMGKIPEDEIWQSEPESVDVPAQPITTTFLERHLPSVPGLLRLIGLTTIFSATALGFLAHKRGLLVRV

Structures are written as SMILES. Structures can show the parent of a compound that is named as a salt.

Consider `C#CCN[C@@H]1CCc2ccccc21` [Example 1, rasagiline mesylate], for which, in data set [1], the “Particle size (D50)” value was found to be 663 microns and the “Particle size (D90)” value is recorded as 1407 microns. With `C#CCN[C@@H]1CCc2ccccc21` [Example 2, rasagiline mesylate], in data set [1], the “Particle size (D50)” value is recorded as 864 microns and the “Particle size (D90)” value turned out to be 1496 microns. Consider `C#CCN[C@@H]1CCc2ccccc21` [Example 3, rasagiline mesylate], for which, in data set [1], the “Particle size (D90)” value is reported as “less than 300 microns”. Still for that read-out and setting: the same measure for `C#CCN[C@@H]1CCc2ccccc21` [Example 4, rasagiline mesylate]: “less than 400 microns”. With `C#CCN[C@@H]1CCc2ccccc21.CS(=O)(=O)O` [Rasagiline mesylate, rasagiline mesylate], in data set [2] (ethanol), the Solubility in ethanol result is “freely soluble”. Besides, the Solubility in isopropanol result in data set [2] (isopropanol) is “sparingly soluble”. Besides, the Solubility in water entry in data set [2] (water) is “freely soluble”. In the case of `C#CCN[C@@H]1CCc2ccccc21` [Rasagiline, R(+)—N-propargyl-1-aminoindan], the “Inhibition of MAO-B” value in data set [3] is listed as “selective inhibitor”.

The record behind these values is US20110117200A1 (ACTAVIS GROUP PTC EHF, priority 2008, published 2011).
